According to patent publication US11400106B2, “Methods for inhibiting microbe growth” (priority 2018, dated 2022):
Like-named read-outs stand apart in the source and are kept apart here.

Columns and labels:
[1] = tested on: E. coli; assay: microbe, parasite or virus in culture; format: cell-based, Escherichia coli
[2] = tested on: E. coli; assay: Checkerboard microdilution with sodium bicarbonate against E. coli; format: cell-based, Escherichia coli
Method: (§1) In the following experiments, bacterial cells were cultured in 96-well microtiter plates in cation-adjusted Mueller-Hinton Broth (MHB) for 18 h at 37° C. The main strains used were E. coli (K-12 BW25113) (placed in stationary incubator) and S. aureus (Newman Strain) (incubated at 250 r.p.m). Knockout strains (ΔtolcC and ΔychM) were used from the Keio knockout collection (Baba et al., Construction of Escherichia coli K-12 in-frame, single-gene knockout mutants: the Keio collection. Mol Syst Biol 2, 2006 0008, doi:10.1038/msb4100050 (2006)). For MIC determination and checkerboard analyses, Clinical & Laboratory Standards Institute (CLSI) protocol was used. […] DiSC3 loading of S. aureus cells was performed as previously described (Farha et al., Collapsing the proton motive force to identify synergistic combinations against Staphylococcus aureus. Chemistry & biology 20, 1168-1178, doi:10.1016/j.chembiol.2013.07.006 (2013)). CCCP concentration of 20 μM was used. pH adjustments were made by addition of HCl or NaOH. INT assay and ATP bioluminescence assays were performed as previously described (Farha et al., Collapsing the proton motive force to identify synergistic combinations against Staphylococcus aureus. Chemistry & biology 20, 1168-1178, doi:10.1016/j.chembiol.2013.07.006 (2013)). For chemical-genomic studies, the Keio library was grown overnight in cation-adjusted MHB broth, in 384-well plates. From these, treatment plates (25 mM sodium bicarbonate, or a sterile water control) were inoculated and grown for 15 hours at 37° C., in a stationary incubator. Data was normalized according to Mangat et al (Mangat et al., Rank ordering plate data facilitates data visualization and normalization in high-throughput screening. J Biomol Screen 19, 1314-1320, doi:10.1177/1087057114534298 (2014)), with gene products and GO terms mined from EcoCyc. The GFP promoter library (Keseler et al., EcoCyc: fusing model organism databases with systems biology. Nucleic Acids Res 41, D605-612, doi:10.1093/nar/gks1027 (2013)) was grown for 18 hours at ambient temperature with the same inoculation strategy as with the Keio collection. The analysis pipeline of Zaslaver et al (Zaslaver et al., A comprehensive library of fluorescent transcriptional reporters for Escherichia coli. Nat Methods 3, 623-628, doi:10.1038/nmeth895 (2006)) was used to generate maps of promoter activity, from which lists of promoters with increased or decreased activity were compiled.
The effect of sodium bicarbonate on the activity of various antibacterial agents was investigated. Clinical isolates of various bacteria were obtained from the American Type Culture Collection (“ATCC”) and the International Health Management Associates (“IHMA”). Fractional inhibitory concentration indices (FICIs) were determined by setting up standard checkerboard broth microdilution assays in 96-well microtiter plates with serially diluted 8 (or 10) concentrations of each drug (sodium bicarbonate and the antibacterial agent). The protocol for checkerboard analyses was based on the CLSI guidelines. Plates were incubated at 37° C. for 18 hours, and optical density was read at 600 nm. At least 3 replicates were done for each query compound.
The FIC index (FICI) is the sum of the two FICs. Chemical-chemical interactions with ΣFIC of less or equal to 0.5 were deemed synergistic.
As validation, three of the antibiotic agents were further tested with checkerboard analyses. Checkerboard broth microdilution assays were set up in 96-well microtiter plates with serially diluted 8 (or 10) concentrations of each compound (sodium bicarbonate and the antibiotic). The protocol for checkerboard analyses was based on the CLSI guidelines. Plates were incubated at 37° C. for 18 hours, and optical density was read at 600 nm. At least 3 replicates were done for each query compound.

[3] = tested on: Klebsiella pneumoniae; assay: MIC determination against Klebsiella pneumoniae; format: cell-based
Method: as §1, with “The GFP promoter library (Keseler et al., EcoCyc: fusing model organism databases with systems biology. Nucleic Acids Res 41, D605-612, doi:10.1093/nar/gks1027 (2013)) was grown for 18 hours at ambient temperature with the same inoculation strategy as with the Keio collection. The analysis pipeline of Zaslaver et al (Zaslaver et al., A comprehensive library of fluorescent transcriptional reporters for Escherichia coli. Nat Methods 3, 623-628, doi:10.1038/nmeth895 (2006)) was used to generate maps of promoter activity, from which lists of promoters with increased or decreased activity were compiled.” left out

[4] = tested on: Burkhloderia cenocepacia; assay: MIC determination against Burkhloderia cenocepacia; format: cell-based
Method: (§2) In the following experiments, bacterial cells were cultured in 96-well microtiter plates in cation-adjusted Mueller-Hinton Broth (MHB) for 18 h at 37° C. The main strains used were E. coli (K-12 BW25113) (placed in stationary incubator) and S. aureus (Newman Strain) (incubated at 250 r.p.m). Knockout strains (ΔtolcC and ΔychM) were used from the Keio knockout collection (Baba et al., Construction of Escherichia coli K-12 in-frame, single-gene knockout mutants: the Keio collection. Mol Syst Biol 2, 2006 0008, doi:10.1038/msb4100050 (2006)). For MIC determination and checkerboard analyses, Clinical & Laboratory Standards Institute (CLSI) protocol was used. […] DiSC3 loading of S. aureus cells was performed as previously described (Farha et al., Collapsing the proton motive force to identify synergistic combinations against Staphylococcus aureus. Chemistry & biology 20, 1168-1178, doi:10.1016/j.chembiol.2013.07.006 (2013)). CCCP concentration of 20 μM was used. pH adjustments were made by addition of HCl or NaOH. INT assay and ATP bioluminescence assays were performed as previously described (Farha et al., Collapsing the proton motive force to identify synergistic combinations against Staphylococcus aureus. Chemistry & biology 20, 1168-1178, doi:10.1016/j.chembiol.2013.07.006 (2013)). […]

[5] = tested on: S. aureus; assay: microbe, parasite or virus in culture; conditions: for MIC: Staphylococcus aureus
[6] = tested on: Acinetobacter baumannii; assay: MIC determination against Acinetobacter baumannii; format: cell-based; conditions: for MIC: Acinetobacter baumannii
Method: as §1

[7] = tested on: Pseudomonas aeruginosa; assay: MIC determination against Pseudomonas aeruginosa; format: cell-based
Method: as §1, with “The GFP promoter library (Keseler et al., EcoCyc: fusing model organism databases with systems biology. Nucleic Acids Res 41, D605-612, doi:10.1093/nar/gks1027 (2013)) was grown for 18 hours at ambient temperature with the same inoculation strategy as with the Keio collection. The analysis pipeline of Zaslaver et al (Zaslaver et al., A comprehensive library of fluorescent transcriptional reporters for Escherichia coli. Nat Methods 3, 623-628, doi:10.1038/nmeth895 (2006)) was used to generate maps of promoter activity, from which lists of promoters with increased or decreased activity were compiled.” left out

[8] = tested on: Burkhloderia multivorans; assay: MIC determination against Burkhloderia multivorans; format: cell-based
Method: as §2

[9] = tested on: Enterococcus faecalis; assay: MIC determination against Enterococcus faecalis; format: cell-based
[10] = tested on: E. coli MC1061; assay: Membrane potential dissipation, DiSC3(5) fluorescence spectroscopy; format: cell-based, Escherichia coli; conditions: E. coli grown in standard growth media or supplemented with 25 mM sodium bicarbonate; compound at MIC
Method: E. coli MC1061 cells were washed twice and suspended in a buffer containing 20 mM glucose and 5 mM HEPES (pH 7.2). Final resuspension was diluted to an optical density at 600 nm of 0.085. DiSC3(5) was added at a final concentration of 1 and the dye was left to stabilize (1 hr at 37° C.). Compounds were then injected at concentrations equivalent to their MIC. Fluorescent traces were measured in a fluorimeter (Photon Technology International) at the excitation and emission wavelengths of 622 and 660 nm, respectively.
Briefly, due to the potential gradient, the dye is taken up by bacteria and accumulation in the membrane leads to a decrease in fluorescence intensity due to self-quenching. A subsequent increase in fluorescence intensity is observed only if the dye is displaced into the solution as a result of dissipation of the membrane potential.

[11] = tested on: Gram-negative organisms
[12] = tested on: methicillin-resistant Staphylococcus aureus (MRSA) USA-300; assay: Superficial skin infection model, tape-stripped mice, MRSA USA-300; format: in vivo
Method: (§3) In this model, an infection is established by disrupting the skin barrier through partial removal of the epidermal layer by stripping with adhesive tape and with subsequent application of the pathogen. Tape-stripped mice infected with 4×10^6 CFU/mL A. baumannii (FIG. 4A) or 4×10^6 CFU/mL methicillin-resistant Staphylococcus aureus (MRSA) USA-300 (FIG. 4B). […] This treatment regime was also conducted for the Vehicle (1.9% Boric Acid, pH 7) as a control (n=4). Tissue samples were collected at 25 hr post-infection (FIG. 4A) and 28 hr post-infection (FIG. 4B). […] (FIG. 5).

[13] = tested on: A. baumannii; assay: Murine model of systemic A. baumannii infection; format: in vivo, Acinetobacter baumannii; conditions: mice
Method: Mice were treated two-hours post-infection to allow complete organ occupancy by the injected cells.

[14] = tested on: A. baumannii; assay: Superficial skin infection model, tape-stripped mice, A. baumannii; format: in vivo, Acinetobacter baumannii; conditions: 0.5% pentamidine topical, tissue collected 25 hr post-infection
Method: as §3

[15] = tested on: Gram-positive organisms
[16] = tested on: Saccharomyces cerevisiae; assay: MIC of pentamidine against Saccharomyces cerevisiae in YPD medium; format: cell-based
Method: Plates were incubated 24 hours and optical density read at 600 nm

[17] = tested on: E. coli; assay: Gentamicin potency analysis with CCCP pre-treatment; format: cell-based, Escherichia coli; conditions: 25 mM sodium bicarbonate, CCCP pre-treated cells
Method: In the following experiments, bacterial cells were cultured in 96-well microtiter plates in cation-adjusted Mueller-Hinton Broth (MHB) for 18 h at 37° C. The main strains used were E. coli (K-12 BW25113) (placed in stationary incubator) and S. aureus (Newman Strain) (incubated at 250 r.p.m). […] For MIC determination and checkerboard analyses, Clinical & Laboratory Standards Institute (CLSI) protocol was used. […] DiSC3 loading of S. aureus cells was performed as previously described (Farha et al., Collapsing the proton motive force to identify synergistic combinations against Staphylococcus aureus. Chemistry & biology 20, 1168-1178, doi:10.1016/j.chembiol.2013.07.006 (2013)). CCCP concentration of 20 μM was used. pH adjustments were made by addition of HCl or NaOH. INT assay and ATP bioluminescence assays were performed as previously described (Farha et al., Collapsing the proton motive force to identify synergistic combinations against Staphylococcus aureus. Chemistry & biology 20, 1168-1178, doi:10.1016/j.chembiol.2013.07.006 (2013)). For chemical-genomic studies, the Keio library was grown overnight in cation-adjusted MHB broth, in 384-well plates. […]

[18] = read-out: MIC, tissue culture media formulated to mimic the natural environment

Molecule: N=C(N)c1ccc(OCCCCCOc2ccc(C(=N)N)cc2)cc1 [pentamidine isethionate]
- MIC, tissue culture media formulated to mimic the natural environment ([1]; Escherichia coli): 1.5 µg/mL
- MIC ([1]; Escherichia coli, Mueller Hinton Broth, read-out: MIC, MHB): 200 µg/mL
- MIC ([1]; Escherichia coli, read-out: MIC, tissue culture media formulated to mimic the natural environment): 1 µg/mL
- interaction with sodium bicarbonate (checkerboard) [2]: greatly potentiated
- MIC ([3]; read-out: MIC, MHB): > 200 µg/mL
- MIC [3, 18]: 12.5 µg/mL
- MIC ([4]; read-out: MIC, MHB): > 200 µg/mL
- MIC [4, 18]: 12.5 µg/mL
- MIC ([5]; read-out: MIC, MHB): 12.5 µg/mL
- MIC [5, 18]: < 0.1 µg/mL
- enhanced potency in tissue culture media formulated to mimic the natural environment ([6]; A. baumannii, versus standard media): > 50 fold
- MIC ([6]; read-out: MIC, MHB): 100 µg/mL
- MIC [6, 18]: 12.5 µg/mL
- MIC ([7]; read-out: MIC, MHB): > 200 µg/mL
- MIC [7, 18]: 12.5 µg/mL
- MIC ([8]; read-out: MIC, MHB): > 200 µg/mL
- MIC [8, 18]: 12.5 µg/mL
- MIC ([9]; read-out: MIC, MHB): 25 µg/mL
- MIC [9, 18]: 3.1 µg/mL

Molecule: N=C(N)c1ccc(OCCCCCOc2ccc(C(=N)N)cc2)cc1 [pentamidine]
- effect on membrane potential [10]: dissipated the membrane potential
- potentiation of antibacterial activity in the presence of bicarbonate, on average [11]: 40 fold
- interaction with sodium bicarbonate (checkerboard) [2]: synergistic interaction
- reduction in CFU/mL ([12]; 0.5% pentamidine topical, tissue collected 28 hr post-infection): 5 log
- effect of addition of bicarbonate (50 mM) on antibacterial efficacy in clearing an MRSA infection ([12]; topical 0.5% aqueous pentamidine solution with or without bicarbonate (50 mM)): increased the antibacterial efficacy
- rescue of animals ([13]; 50 mg/kg pentamidine IP, single dose 2 h post-infection, in the absence of novobiocin): 80%
- A. baumannii organ load (e.g., spleen) decrease ([13]; pentamidine alone): seven
- reduction in CFU/mL compared to vehicle-treated mice [14]: 4 log
- potentiation of antibacterial activity in the presence of bicarbonate, on average [15]: 50 fold
- MIC ([16]; 25 mM sodium bicarbonate): 4 µg/mL
- MIC ([16]; 50 mM sodium bicarbonate): 2 µg/mL
- MIC ([16]; no sodium bicarbonate): 256 µg/mL

Molecule: Gentamicin
- Fold, E. coli [1]: 8
- Fold, S. aureus [5]: 2
- MIC, S. aureus, MHB− ([5]; MHB in the absence of sodium bicarbonate): 2
- MIC, S. aureus, MHB+ ([5]; MHB in the presence of 25 mM sodium bicarbonate): 1
- effect of CCCP pre-incubation on potentiation by sodium bicarbonate [17]: reversed the potentiation
